{"source": "ChEMBL document CHEMBL1134901", "about": "“Synthesis and activity of novel HIV protease inhibitors with improved potency against multiple PI-resistant viral strains” (Bioorg Med Chem Lett, 2002)", "key": {"[1]": {"tested_on": "Human immunodeficiency virus 1", "experiment": "In vitro inhibition of spread of viral infection using 4X mutant virus", "assay_type": "functional", "settings": "read-out: CIC95"}, "MT4": {"tested_on": "MT4", "experiment": "Concentration required to inhibit the spread of viral infection in MT-4 human T-lymphoid cells infected by the NL4-3 virus", "assay_type": "functional", "settings": "read-out: CIC95"}, "[2]": {"molecular_target": "T1, Human immunodeficiency virus type 1 protease (Human immunodeficiency virus 1, UniProt Q72874)", "experiment": "Inhibitory concentration against wild-type HIV-1 protease"}, "[3]": {"tested_on": "Human immunodeficiency virus 1", "experiment": "Potency against PI-resistant viral isolate construct HIV K-60C", "assay_type": "functional", "settings": "read-out: CIC95"}, "[4]": {"experiment": "Plasma clearance in dogs administered perorally (5 mg/kg) and intravenously (2 mg/kg)", "assay_type": "ADME, organism-based, Canis lupus familiaris", "settings": "dog, iv, read-out: Clp"}, "[5]": {"experiment": "Intrinsic clearance in human liver microsomes", "assay_type": "ADME, Microsome"}, "[6]": {"tested_on": "Human immunodeficiency virus 1", "experiment": "Potency against PI-resistant viral isolate construct HIV Q-60C", "assay_type": "functional", "settings": "read-out: CIC95"}, "[7]": {"tested_on": "Human immunodeficiency virus 1", "experiment": "Potency against PI-resistant viral isolate construct HIV V-18C", "assay_type": "functional", "settings": "read-out: CIC95"}, "[8]": {"tested_on": "Human immunodeficiency virus 1", "experiment": "Potency against PI-resistant virus HIV 4X", "assay_type": "functional", "settings": "read-out: CIC95"}, "Cytochrome P450 2D6": {"molecular_target": "Cytochrome P450 2D6 (Homo sapiens, UniProt P10635)", "sequence (P10635 whole entry)": "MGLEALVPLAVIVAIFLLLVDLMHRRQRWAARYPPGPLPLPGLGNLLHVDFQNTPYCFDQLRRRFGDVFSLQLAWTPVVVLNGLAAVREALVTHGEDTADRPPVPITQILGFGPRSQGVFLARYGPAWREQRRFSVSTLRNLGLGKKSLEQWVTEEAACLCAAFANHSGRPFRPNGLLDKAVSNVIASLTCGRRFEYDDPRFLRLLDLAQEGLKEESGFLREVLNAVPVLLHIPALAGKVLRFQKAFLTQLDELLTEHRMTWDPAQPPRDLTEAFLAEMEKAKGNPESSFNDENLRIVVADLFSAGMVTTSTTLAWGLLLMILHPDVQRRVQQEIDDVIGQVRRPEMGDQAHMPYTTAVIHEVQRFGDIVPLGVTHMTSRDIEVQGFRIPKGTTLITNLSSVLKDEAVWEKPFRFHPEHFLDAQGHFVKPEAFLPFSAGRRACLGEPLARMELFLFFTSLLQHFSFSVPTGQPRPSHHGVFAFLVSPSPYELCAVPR", "experiment": "Inhibition of cytochrome P450 2D6", "assay_type": "ADME"}, "Cytochrome P450 3A4": {"molecular_target": "Cytochrome P450 3A4 (Homo sapiens, UniProt P08684)", "sequence (P08684 whole entry)": "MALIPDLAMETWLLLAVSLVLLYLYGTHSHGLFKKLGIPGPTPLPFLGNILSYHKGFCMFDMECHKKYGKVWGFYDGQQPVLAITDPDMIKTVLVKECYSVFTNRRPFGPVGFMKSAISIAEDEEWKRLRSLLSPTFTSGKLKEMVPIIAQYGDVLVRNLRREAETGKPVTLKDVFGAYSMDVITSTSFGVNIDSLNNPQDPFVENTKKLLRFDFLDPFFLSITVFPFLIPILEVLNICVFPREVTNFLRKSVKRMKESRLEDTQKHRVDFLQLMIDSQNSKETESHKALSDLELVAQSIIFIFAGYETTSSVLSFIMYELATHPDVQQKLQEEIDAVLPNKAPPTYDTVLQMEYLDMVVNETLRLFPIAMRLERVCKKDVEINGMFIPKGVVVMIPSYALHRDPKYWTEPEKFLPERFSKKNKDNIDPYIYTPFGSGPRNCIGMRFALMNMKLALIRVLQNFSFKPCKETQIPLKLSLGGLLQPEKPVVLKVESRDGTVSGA", "experiment": "Inhibition of cytochrome P450 3A4", "assay_type": "ADME"}, "[9]": {"tested_on": "Human immunodeficiency virus 1", "experiment": "Potency against PI-resistant virus HIV NL-4", "assay_type": "functional", "settings": "read-out: CIC95"}, "[10]": {"experiment": "Maximum concentration in dogs administered perorally (5 mg/kg) and intravenously (2 mg/kg)", "assay_type": "ADME, organism-based, Canis lupus familiaris", "settings": "dog, in vivo, po"}, "[11]": {"molecular_target": "T1, Human immunodeficiency virus type 1 protease", "experiment": "Inhibitory concentration required to inhibit cleavage of a substrate by thewild-type HIV-1 protease enzyme"}, "[12]": {"experiment": "Half life in dogs administered perorally (5 mg/kg) and intravenously (2 mg/kg)", "assay_type": "ADME, organism-based, Canis lupus familiaris", "settings": "dog, in vivo"}, "[13]": {"experiment": "Bioavailability in dog (dose 5 mg/kg p.o. and 2 mg/kg i.v.)", "assay_type": "ADME, organism-based, Canis lupus familiaris", "settings": "in vivo, po"}, "[14]": {"experiment": "Area under curve in dogs administered perorally (5 mg/kg) and intravenously (2 mg/kg)", "assay_type": "ADME, organism-based, Canis lupus familiaris", "settings": "dog, in vivo"}}}
{"smiles": "CC(C)CNC(=O)[C@@H]1CN(C(C)(C)c2cc3cnccc3o2)CCN1C[C@@H](O)C[C@@H](Cc1ccccc1)C(=O)N[C@H]1c2ccccc2OC[C@H]1O", "values": [{"measurement": "IC95", "setting": "[1]", "result": 125, "unit": "nM"}, {"measurement": "IC95", "setting": "MT4", "result": 15, "unit": "nM"}, {"measurement": "IC50", "setting": "[2]", "result": 0.4, "unit": "nM"}]}
{"smiles": "CC(C)(C)CNC(=O)[C@@H]1CN(C(C)(C)c2cc3cnccc3o2)CCN1C[C@@H](O)C[C@@H](Cc1ccccc1)C(=O)N[C@H]1c2ccccc2OC[C@H]1O", "values": [{"measurement": "IC95", "setting": "[1]", "result": 500, "unit": "nM"}, {"measurement": "IC95", "setting": "MT4", "result": 31, "unit": "nM"}, {"measurement": "IC50", "setting": "[2]", "result": 1.16, "unit": "nM"}]}
{"smiles": "CCNC(=O)[C@@H]1CN(C(C)(C)c2cc3cnccc3o2)CCN1C[C@@H](O)C[C@@H](Cc1ccccc1)C(=O)N[C@H]1c2ccccc2OC[C@H]1O", "values": [{"measurement": "IC95", "setting": "[1]", "result": 62, "unit": "nM"}, {"measurement": "IC95", "setting": "MT4", "result": 31, "unit": "nM"}, {"measurement": "IC50", "setting": "[2]", "result": 0.61, "unit": "nM"}]}
{"smiles": "CC(C)(c1cc2cnccc2o1)N1CCN(C[C@@H](O)C[C@@H](Cc2ccccc2)C(=O)N[C@H]2c3ccccc3OC[C@H]2O)[C@H](C(=O)NCC(F)(F)C(F)(F)F)C1", "values": [{"measurement": "IC95", "setting": "[1]", "result": 62, "unit": "nM"}, {"measurement": "IC95", "setting": "MT4", "result": "≤ 8", "unit": "nM"}, {"measurement": "IC50", "setting": "[2]", "result": 0.14, "unit": "nM"}]}
{"smiles": "CC(C)(C)NC(=O)[C@@H]1CN(C(C)(C)c2cc3cnccc3o2)CCN1C[C@@H](O)C[C@@H](Cc1ccccc1)C(=O)N[C@H]1c2ccccc2OC[C@H]1O", "values": [{"measurement": "IC95", "setting": "[3]", "result": 500, "unit": "nM"}, {"measurement": "IC95", "setting": "[1]", "result": 31, "unit": "nM"}, {"measurement": "clearance", "setting": "[4]", "result": 0.852, "unit": "L/h/kg"}, {"measurement": "CLint scaled", "setting": "[5]", "result": 2.04, "unit": "L/h/kg"}, {"measurement": "IC95", "setting": "[6]", "result": 125, "unit": "nM"}, {"measurement": "IC95", "setting": "[7]", "result": 125, "unit": "nM"}, {"measurement": "IC95", "setting": "[8]", "result": 16, "unit": "nM"}, {"measurement": "IC50", "setting": "Cytochrome P450 2D6", "result": 2430, "unit": "nM"}, {"measurement": "IC95", "setting": "MT4", "result": "≤ 8", "unit": "nM"}, {"measurement": "IC50", "setting": "Cytochrome P450 3A4", "result": 310, "unit": "nM"}, {"measurement": "IC95", "setting": "[9]", "result": 9.2, "unit": "nM"}, {"measurement": "Cmax", "setting": "[10]", "result": 8.8, "unit": "µM"}, {"measurement": "IC50", "setting": "[2]", "result": 0.08, "unit": "nM"}]}
{"smiles": "CC(C)(c1cc2cnccc2o1)N1CCN(C[C@@H](O)C[C@@H](Cc2ccccc2)C(=O)N[C@H]2c3ccccc3OC[C@H]2O)[C@H](C(=O)NCc2ccccc2)C1", "values": [{"measurement": "IC95", "setting": "[1]", "result": 250, "unit": "nM"}, {"measurement": "IC95", "setting": "MT4", "result": 125, "unit": "nM"}, {"measurement": "IC50", "setting": "[2]", "result": 2.19, "unit": "nM"}]}
{"smiles": "CC(C)(c1cc2cnccc2o1)N1CCN(C[C@@H](O)C[C@@H](Cc2ccccc2)C(=O)N[C@H]2c3ccccc3OC[C@H]2O)[C@H](C(=O)NCC2CC2)C1", "values": [{"measurement": "IC95", "setting": "[1]", "result": 125, "unit": "nM"}, {"measurement": "IC95", "setting": "MT4", "result": 46, "unit": "nM"}, {"measurement": "IC50", "setting": "[2]", "result": 0.5, "unit": "nM"}]}
{"smiles": "CC(C)(C)NC(=O)[C@@H]1CN(Cc2cccnc2)CCN1C[C@@H](O)C[C@@H](Cc1ccccc1)C(=O)N[C@H]1c2ccccc2C[C@H]1O", "values": [{"measurement": "IC95", "setting": "[3]", "result": "> 1000", "unit": "nM"}, {"measurement": "IC95", "setting": "[6]", "result": "> 1000", "unit": "nM"}, {"measurement": "IC95", "setting": "[7]", "result": "> 1000", "unit": "nM"}, {"measurement": "IC95", "setting": "[8]", "result": 400, "unit": "nM"}, {"measurement": "IC95", "setting": "[9]", "result": 50, "unit": "nM"}]}
{"smiles": "CC(C)(c1cc2cnccc2o1)N1CCN(C[C@@H](O)C[C@@H](Cc2ccccc2)C(=O)N[C@H]2c3ccccc3OC[C@H]2O)[C@H](C(=O)NCc2cccs2)C1", "values": [{"measurement": "IC95", "setting": "[1]", "result": 125, "unit": "nM"}, {"measurement": "IC50", "setting": "[11]", "result": 0.65, "unit": "nM"}, {"measurement": "IC95", "setting": "MT4", "result": 94, "unit": "nM"}]}
{"smiles": "CC(C)(c1cc2cnccc2o1)N1CCN(C[C@@H](O)C[C@@H](Cc2ccccc2)C(=O)N[C@H]2c3ccccc3OC[C@H]2O)[C@H](C(=O)NCC(F)(F)F)C1", "values": [{"measurement": "IC95", "setting": "[3]", "result": 250, "unit": "nM"}, {"measurement": "IC95", "setting": "[1]", "result": "≤ 8", "unit": "nM"}, {"measurement": "clearance", "setting": "[4]", "result": 0.241, "unit": "L/h/kg"}, {"measurement": "CLint scaled", "setting": "[5]", "result": 1.32, "unit": "L/h/kg"}, {"measurement": "IC95", "setting": "[6]", "result": 62, "unit": "nM"}, {"measurement": "IC95", "setting": "[7]", "result": 62, "unit": "nM"}, {"measurement": "IC95", "setting": "[8]", "result": "≤ 8", "unit": "nM"}, {"measurement": "IC50", "setting": "Cytochrome P450 2D6", "result": 520, "unit": "nM"}, {"measurement": "half-life", "setting": "[12]", "result": 52, "unit": "min"}, {"measurement": "bioavailability", "setting": "[13]", "result": 65, "unit": "%"}, {"measurement": "IC95", "setting": "MT4", "result": "≤ 8", "unit": "nM"}, {"measurement": "IC50", "setting": "Cytochrome P450 3A4", "result": 30, "unit": "nM"}, {"measurement": "IC95", "setting": "[9]", "result": "≤ 8", "unit": "nM"}, {"measurement": "AUC", "setting": "[14]", "result": 18.8, "unit": "µM·h"}, {"measurement": "Cmax", "setting": "[10]", "result": 17, "unit": "µM"}, {"measurement": "IC50", "setting": "[2]", "result": 0.07, "unit": "nM"}]}
{"smiles": "O=C(N[C@H]1c2ccccc2C[C@H]1O)[C@H](Cc1ccccc1)C[C@H](O)CN1CCN(Cc2cccnc2)C[C@H]1C(=O)NCC(F)(F)F", "values": [{"measurement": "IC95", "setting": "[3]", "result": "> 1000", "unit": "nM"}, {"measurement": "IC95", "setting": "[6]", "result": 62, "unit": "nM"}, {"measurement": "IC95", "setting": "[7]", "result": 500, "unit": "nM"}, {"measurement": "IC95", "setting": "[8]", "result": 125, "unit": "nM"}, {"measurement": "IC95", "setting": "[9]", "result": 62, "unit": "nM"}]}
{"smiles": "CC(C)(c1cc2cnccc2o1)N1CCN(C[C@@H](O)C[C@@H](Cc2ccccc2)C(=O)N[C@H]2c3ccccc3OC[C@H]2O)[C@H](C(=O)NC2CC2)C1", "values": [{"measurement": "IC95", "setting": "[1]", "result": 250, "unit": "nM"}, {"measurement": "IC95", "setting": "MT4", "result": 62, "unit": "nM"}, {"measurement": "IC50", "setting": "[2]", "result": 0.6, "unit": "nM"}]}
{"smiles": "CC(C)(c1cc2cnccc2o1)N1CCN(C[C@@H](O)C[C@@H](Cc2ccccc2)C(=O)N[C@H]2c3ccccc3OC[C@H]2O)[C@H](C(=O)NCCC(F)(F)F)C1", "values": [{"measurement": "IC95", "setting": "[1]", "result": 500, "unit": "nM"}, {"measurement": "IC95", "setting": "MT4", "result": 62, "unit": "nM"}, {"measurement": "IC50", "setting": "[2]", "result": 1.6, "unit": "nM"}]}
{"smiles": "CC(C)(c1cc2cnccc2o1)N1CCN(C[C@@H](O)C[C@@H](Cc2ccccc2)C(=O)N[C@H]2c3ccccc3OC[C@H]2O)[C@H](C(=O)NC2CCCC2)C1", "values": [{"measurement": "IC95", "setting": "[1]", "result": 31, "unit": "nM"}, {"measurement": "IC95", "setting": "MT4", "result": "≤ 8", "unit": "nM"}, {"measurement": "IC50", "setting": "[2]", "result": 0.37, "unit": "nM"}]}
{"smiles": "CC(C)(c1cc2cnccc2o1)N1CCN(C[C@@H](O)C[C@@H](Cc2ccccc2)C(=O)N[C@H]2c3ccccc3OC[C@H]2O)[C@H](C(=O)Nc2ccccc2)C1", "values": [{"measurement": "IC95", "setting": "[1]", "result": "> 1000", "unit": "nM"}, {"measurement": "IC95", "setting": "MT4", "result": 250, "unit": "nM"}, {"measurement": "IC50", "setting": "[2]", "result": 13.8, "unit": "nM"}]}
